Results taken from the supplement of paper PMC4862054.

Legend:
Settings in all cases: incubation time: 72 h
[1] = test system: HCC1937; experiment: normalised viability (% of control), CellTiter-Blue; higher = more viable cells (about 100 = DMSO control)
Summary of the method: (§1)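 Breast cancer cell lines in 20 µl suspension were seeded onto 384-well plates pre-loaded with compound dissolved in 5 µl medium, then incubated 72 h. CellTiter-Blue reagent (2.5 µl) was added for 2 h at 37 °C and fluorescence read at 560/590 nm. Each plate was normalised to vehicle (100) and a positive kill control (0), with Z'-factor quality control. The value is normalised viability at one listed concentration of the series.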

[2] = test system: HCC1143; experiment: as above
Summary of the method: as §1

[3] = test system: MFM-223; experiment: as above
Summary of the method: as §1

[4] = test system: MDA-MB-436; experiment: as above
Summary of the method: as §1

[5] = test system: CAL-148; experiment: as above
Summary of the method: as §1

[6] = test system: SK-BR-3; experiment: as above
Summary of the method: as §1

[7] = test system: HCC1599; experiment: as above
Summary of the method: as §1

[8] = test system: DU-4475; experiment: as above
Summary of the method: as §1

[9] = test system: BT-474; experiment: as above
Summary of the method: as §1

[10] = test system: CAL-51; experiment: as above
Summary of the method: as §1

[11] = test system: HDQ-P1; experiment: as above
Summary of the method: as §1

[12] = test system: CAL-120; experiment: as above
Summary of the method: as §1

[13] = test system: Hs578T; experiment: as above
Summary of the method: as §1

[14] = test system: MDA-MB-231; experiment: as above
Summary of the method: as §1

[15] = test system: HCC1937; experiment: drug sensitivity score (DSS), CellTiter-Blue viability (DSS (AUC-based score)); higher = stronger viability inhibition; extreme values may be limits of the assay
Procedure: (§2)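 DSRT with the CellTiter-Blue (resazurin reduction) viability readout, fluorescence 560/590 nm, 72 h incubation. Plates were normalised to DMSO and benzethonium chloride controls. DSS is computed from the area under the fitted dose-response curve (5 or 9 concentrations).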

[16] = test system: HCC1143; experiment: as above
Procedure: as §2

[17] = test system: MDA-MB-453; experiment: as above
Procedure: as §2

[18] = test system: CAL-148; experiment: as above
Procedure: as §2

[19] = test system: HCC1599; experiment: as above
Procedure: as §2

[20] = test system: DU-4475; experiment: as above
Procedure: as §2

[21] = test system: BT-474; experiment: as above
Procedure: as §2

[22] = test system: CAL-51; experiment: as above
Procedure: as §2

[23] = test system: CAL-120; experiment: as above
Procedure: as §2

[24] = test system: MDA-MB-231; experiment: as above
Procedure: as §2

Nc1cc(C(F)(F)F)c(-c2cc(N3CCOCC3)nc(N3CCOCC3)n2)cn1 [BKM-120]
normalised viability [%]
Settings | 3 nM | 10 nM | 30 nM | 100 nM | 1000 nM | 10000 nM
[1] | – | 121 | – | – | 87.9 | 13.7
[2] | – | 81.4 | – | – | 72.8 | 20.8
[3] | – | 92.2 | – | – | 60.2 | 14.5
[4] | – | 82.4 | – | – | 93.8 | 16.5
[5] | 94.3 | – | 104 | 98.7 | – | –
[6] | – | 101 | – | – | 24.4 | 9.47
[7] | – | 92.8 | – | – | 63.6 | 32.7
[8] | 104 | – | 93.3 | 101 | – | –
[9] | – | 129 | – | – | 64.3 | 11.1
[10] | 100 | – | 92.1 | 84.3 | – | –
[11] | 97.8 | – | 107 | 97.7 | – | –
[12] | – | 81.1 | – | – | 54.5 | 13.5
[13] | – | 114 | – | – | 88.7 | 9.62
[14] | – | 94.2 | – | – | 69.1 | 15.3

Settings | drug sensitivity score
[15] | 6.85
[16] | 5.44
[17] | 13.8
[18] | 8.55
[19] | 8.97
[20] | 6.63
[21] | 9.72
[22] | 11.6
[23] | 8.37
[24] | 8.24

CNC(=O)c1cc(Oc2ccc(NC(=O)Nc3ccc(Cl)c(C(F)(F)F)c3)c(F)c2)ccn1 [Regorafenib]
normalised viability [%]
Settings | 3 nM | 10 nM | 30 nM | 100 nM | 1000 nM | 10000 nM
[1] | – | 94.9 | – | – | 90.3 | 35.1
[2] | – | 76.8 | – | – | 77.8 | 75.4
[3] | – | 107 | – | – | 57.1 | 31.2
[4] | – | 115 | – | – | 102 | 65.2
[5] | 88 | – | 90.2 | 95.3 | – | –
[6] | – | 93.5 | – | – | 95.8 | 72.2
[7] | – | 100 | – | – | 107 | 56.3
[8] | 114 | – | 100 | 120 | – | –
[9] | – | 94.5 | – | – | 103 | 38.8
[10] | 106 | – | 106 | 104 | – | –
[11] | 101 | – | 109 | 100 | – | –
[12] | – | 89.4 | – | – | 102 | 46
[13] | – | 96.4 | – | – | 90.7 | 38.3
[14] | – | 90.5 | – | – | 68.1 | 31.7

Settings | drug sensitivity score
[15] | 3.4
[16] | 9.31
[17] | 5.4
[18] | 0
[19] | 1.06
[20] | 3.68
[21] | 1.39
[22] | 3.37
[23] | 1.05
[24] | 8.54

CO[C@H]1C[C@@H]2CC[C@@H](C)[C@@](O)(O2)C(=O)C(=O)N2CCCC[C@H]2C(=O)O[C@H]([C@H](C)C[C@@H]2CC[C@@H](OP(C)(C)=O)[C@H](OC)C2)CC(=O)[C@H](C)/C=C(\C)[C@@H](O)[C@@H](OC)C(=O)[C@H](C)C[C@H](C)/C=C/C=C/C=C/1C [Ridaforolimus]
normalised viability [%]
Settings | 0.3 nM | 1 nM | 3 nM | 10 nM | 100 nM | 1000 nM
[1] | – | 52.4 | – | – | 62.5 | 69.5
[2] | – | 71.5 | – | – | 56.1 | 56.8
[3] | – | 56.3 | – | – | 45 | 43.3
[4] | – | 81.3 | – | – | 94.5 | 79
[5] | 79.9 | – | 43.8 | 36.6 | – | –
[6] | – | 79.8 | – | – | 51 | 42.4
[7] | – | 105 | – | – | 98.7 | 72.5
[8] | 100 | – | 61.7 | 57.9 | – | –
[9] | – | 75.5 | – | – | 63 | 61.7
[10] | 90.1 | – | 56.2 | 38.6 | – | –
[11] | 96.2 | – | 90.1 | 74.4 | – | –
[12] | – | 70 | – | – | 50 | 46.9
[13] | – | 62.9 | – | – | 57.2 | 54.3
[14] | – | 86.4 | – | – | 81.8 | 70.4

Settings | drug sensitivity score
[15] | 17.2
[16] | 16.3
[17] | 29.9
[18] | 25
[19] | 0
[20] | 16.7
[21] | 14.5
[22] | 22
[23] | 19.1
[24] | 2.74

Cc1ccc(NC(=O)c2ccc(CN3CCN(C)CC3)cc2)cc1Nc1nc(-c2cccnc2)cs1 [Masitinib]
normalised viability [%]
Settings | 3 nM | 10 nM | 30 nM | 100 nM | 1000 nM | 10000 nM
[1] | – | 97.3 | – | – | 99.5 | 84.8
[2] | – | 77.4 | – | – | 88.7 | 85.5
[3] | – | 89.2 | – | – | 93.7 | 92.5
[4] | – | 97.5 | – | – | 111 | 72.4
[5] | 80.9 | – | 82.8 | 90.6 | – | –
[6] | – | 99.6 | – | – | 102 | 25.2
[7] | – | 86.2 | – | – | 97.6 | 95.8
[8] | 109 | – | 91.4 | 95.5 | – | –
[9] | – | 105 | – | – | 101 | 50.1
[10] | 106 | – | 100 | 97.5 | – | –
[11] | 94 | – | 92.9 | 99.5 | – | –
[12] | – | 82.4 | – | – | 81.8 | 79.3
[13] | – | 113 | – | – | 113 | 81.4
[14] | – | 96.7 | – | – | 91.1 | 50.4

Settings | drug sensitivity score
[15] | 0
[16] | 0
[17] | 4.09
[18] | 0
[19] | 0
[20] | 0
[21] | 0
[22] | 0
[23] | 0
[24] | 0

COCC[n+]1c2c(n(Cc3cnccn3)c1C)C(=O)c1ccccc1C2=O [YM155]
normalised viability [%]
Settings | 3 nM | 10 nM | 30 nM | 100 nM | 1000 nM | 10000 nM
[1] | – | 25 | – | – | 0.8 | 2.31
[2] | – | 83.8 | – | – | 3.34 | 2.44
[3] | – | 62.8 | – | – | 12.2 | 6.53
[4] | – | 34.5 | – | – | 0.04 | 0.01
[5] | 98.3 | – | 1.65 | 1.83 | – | –
[6] | – | 44.3 | – | – | 0.33 | 0.6
[7] | – | 62.8 | – | – | 3.16 | 2.97
[8] | 124 | – | 95.8 | 57.8 | – | –
[9] | – | 84.2 | – | – | 0.63 | 2.25
[10] | 94.6 | – | 38.9 | 11.5 | – | –
[11] | 80.4 | – | 16.8 | 0.96 | – | –
[12] | – | 9.27 | – | – | 2.84 | 3.14
[13] | – | 84.8 | – | – | 19.6 | -0.04
[14] | – | 14.7 | – | – | 1.23 | 2.19

Settings | drug sensitivity score
[15] | 39.1
[16] | 30.3
[17] | 35.5
[18] | 35.7
[19] | 34
[20] | 23.3
[21] | 32.9
[22] | 31.9
[23] | 40.9
[24] | 40

CN(C)CCOc1ccc(/C(=C(/CCCl)c2ccccc2)c2ccccc2)cc1 [Toremifene]
normalised viability [%]
Settings | 3 nM | 10 nM | 30 nM | 100 nM | 1000 nM | 10000 nM
[1] | – | 129 | – | – | 93.1 | 114
[2] | – | 92.5 | – | – | 97.3 | 102
[3] | – | 98.1 | – | – | 96.1 | 71.8
[4] | – | 99 | – | – | 96.3 | 71.1
[5] | 94 | – | 97.6 | 108 | – | –
[6] | – | 113 | – | – | 107 | 91.4
[7] | – | 127 | – | – | 97.5 | 89.6
[8] | 110 | – | 98.6 | 99.4 | – | –
[9] | – | 132 | – | – | 119 | 92.4
[10] | 107 | – | 98.4 | 110 | – | –
[11] | 108 | – | 109 | 113 | – | –
[12] | – | 85.2 | – | – | 96.1 | 79.1
[13] | – | 122 | – | – | 109 | 94.6
[14] | – | 95.8 | – | – | 101 | 108

Settings | drug sensitivity score
[15] | 0
[16] | 0
[17] | 1.86
[18] | 0
[19] | 0
[20] | 0
[21] | 0
[22] | 0
[23] | 0
[24] | 0
